ChEMBL document CHEMBL6134791, “Stereochemical optimization of N,2-substituted cycloalkylamines as norepinephrine reuptake inhibitors” (RSC Med Chem, 2024)

Target: Sodium-dependent noradrenaline transporter (Homo sapiens, UniProt P23975)
Test: Inhibition of NET (unknown origin) expressed in Jump In T-REx HEK293 cells assessed as decrease in norepinephrine-induced cellular response preincubated for 1 hr followed by norepinephrine stimulation measured for 30 mins by TRACT assay
Type: cell-based

Chain of Sodium-dependent noradrenaline transporter (P23975 whole entry): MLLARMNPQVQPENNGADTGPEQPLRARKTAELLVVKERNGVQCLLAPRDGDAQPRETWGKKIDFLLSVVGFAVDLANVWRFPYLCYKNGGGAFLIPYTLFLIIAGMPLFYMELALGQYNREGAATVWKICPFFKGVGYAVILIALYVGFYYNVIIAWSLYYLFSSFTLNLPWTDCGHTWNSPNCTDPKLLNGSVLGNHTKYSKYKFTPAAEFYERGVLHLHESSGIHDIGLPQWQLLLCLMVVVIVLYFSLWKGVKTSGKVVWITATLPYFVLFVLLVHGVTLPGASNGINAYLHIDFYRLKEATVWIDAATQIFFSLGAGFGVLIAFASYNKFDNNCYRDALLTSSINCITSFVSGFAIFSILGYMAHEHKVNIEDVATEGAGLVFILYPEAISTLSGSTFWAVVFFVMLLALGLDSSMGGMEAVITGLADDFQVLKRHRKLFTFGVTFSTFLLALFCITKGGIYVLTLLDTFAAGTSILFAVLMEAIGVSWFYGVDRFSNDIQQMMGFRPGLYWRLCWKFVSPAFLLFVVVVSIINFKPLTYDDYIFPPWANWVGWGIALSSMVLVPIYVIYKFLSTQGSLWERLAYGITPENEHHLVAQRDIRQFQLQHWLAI

Row | Compound | IC50 [nM]
1 | COC(=O)CCCNC1CCCC1c1ccc(Cl)c(Cl)c1 (configuration not stated) | 158
2 | OCCNC1CCCC1c1ccc(Cl)c(Cl)c1 (configuration not stated) | 79.4
3 | CCCCNC1CCCC1c1ccc(Cl)c(Cl)c1 (configuration not stated) | 251
4 | CNCCCCNC1CCCC1c1ccc(Cl)c(Cl)c1 (configuration not stated) | 316
5 | OCCCCNC1CCCCC1c1ccc(Cl)c(Cl)c1 (configuration not stated) | 501
6 | COCCCCNC1CCCC1c1ccc(Cl)c(Cl)c1 (configuration not stated) | 100
7 | Clc1ccc(C2CCCC2NCc2ccccc2)cc1Cl (configuration not stated) | 631
